Measurements: US5536848A, “Bioactive acetogenins and derivatives” (Purdue Research Foundation, priority 1994, dated 1996)
Converted amounts (≈) assume the structure as drawn. “Also recorded” adds a separate entry of the source. Where two headings read alike, the source gives them in different places.

Tests used:
[1] = test system: brine shrimp (Artemia salina Leach); test: Brine shrimp lethality test (BST); type: in vivo; details: for LC50: Artemia salina, read-out: BST LC50
Procedure: (§1) The brine shrimp (Artemia salina Leach) test (BST) was performed as modified to determine LC50 values in μg/ml. Seven-day in vitro cytotoxicity tests against human tumor cell lines were carried out at the Purdue Cancer Center, using standard protocols for A-549 (human lung carcinoma), MCF-7 (human breast carcinoma) and HT-29 (human colon carcinoma) with adriamycin as a positive control. The reported ED50 values in μg/ml (Table 5) were tabulated from the same run in order to facilitate comparison for the SAR's.
(§2) Bioassays. The brine shrimp (Artemia salina Leach) test (BST) was performed as modified. Zhao et al., Phytochemistry, 33, p. 1065 (1993). Seven-day in vitro cytotoxicity tests against human tumor cell lines were carried out at the Purdue Cancer Center, using standard protocols for A-549 (human lung carcinoma), Gu, Z. M.; Fang, X.-P.; Miesbauer, L. R., Smith, D. L.; and McLaughlin, J. L., 30, 31, and 32-Hydroxybullatacinones: Bioactive Terminally-Hydroxylated Annonaceous Acetogenins from Annona bullata., J. Nat. Prod., 1993, 56, 870-876; MCF-7 (human breast carcinoma) McLaughlin, J. L., Chang, C.-J., and Smith, D. L., Simple Bench-Top Bioassays (Brine Shrimp and Potato Discs) for the Discoveries of Plant Antitumor Compounds: A Review of Recent Progress. In Kinghorn, A. D., Balandrin, J. (Eds): "Human Medicinal Agents from Plants", ACS Symposium Series, Washington, D.C., American Chemical Society, 1993, pp. 112-137; and HT-29 (human colon carcinoma), Mclaughlin, J.L., Chang, C.-J., Smith, D.L., "'Bench-Top' Bioassays for the Discovery of Bioactive Natural Products: An Update", in Rahman, Atta-ur- (Ed): "Studies in Natural Product Chemistry", Vol. 9, Amsterdam, Elsevier, 1991, pp. 383-409, with adriamycin as a positive control. The reported values (Table IV) were tabulated from the same run in order to facilitate comparison for the SAR's.
(§3) Bioassay. The extracts, fractions, and isolates were routinely evaluated for lethality to brine shrimp larvae (BST). Cytotoxicities against human solid tumor cells were measured at the Purdue Cell Culture Laboratory, Purdue Cancer Center, for the A-549 lung carcinoma, MCF-7 breast carcinoma, and HT-29 colon adenocarcinoma.
(§4) The brine shrimp lethality test (BST), on newly hatched naupleii, was performed in our laboratory as previously described. McLaughlin, Methods in Plant Biochemistry, Vol. 6, Hostettmann, Academic Press, London, pp. 1-33 (1991). Seven day cytotoxicities against human solid tumor cells were measured at the Cell Culture Laboratory, Purdue Cancer Center, for the A-549 lung carcinoma, MCF-7 breast carcinoma, and HT-29 colon adenocarcinoma. The respiratory functions of rat liver mitochondria (RMB) were measured polarographically by determination of their rates of oxygen consumption after the addition of acetogenins or their derivatives.

[2] = test system: MCF-7 (human breast carcinoma); test: Seven-day in vitro cytotoxicity, MCF-7; type: cell-based; details: MCF7, 168 h
Procedure: as §1, §2, §3, §4

[3] = test system: A-549 (human lung carcinoma); test: Seven-day in vitro cytotoxicity, A-549; type: cell-based; details: A549, 168 h
Procedure: as §1, §2, §3, §4

rat liver mitochondria = test: Rat mitochondrial bioassay (RMB), inhibition of oxygen uptake; type: biochemical; details: for RMB IC50: Table 17, oxygen consumption of rat liver mitochondria, parent and acetal derivative in the same run
Procedure: as §4
The oxidative phosphorylation pathway (or electron transport chain) is responsible for oxidizing NADH to NAD^+ and producing ATP from ADP and phosphate within the mitochondria. There are five enzyme complexes in this pathway: NADH-ubiquinone reductase (complex I), succinate-ubiquinone reductase (complex II), ubiquinone-cytochrome c reductase (complex III), cytochrome c oxidase (complex IV) and the F0 F1 -ATPase complex (complex V). The end point of the oxidative phosphorylation pathway is the reduction of oxygen (O2) to water in the mitochondria (thus, it is also called respiration), coupled with the synthesis of ATP by complex V. State 4 respiration is the oxidation of substrates in the absence of a phosphate acceptor (e.g., ADP). State 3 respiration occurs when a phosphate acceptor is present and oxygen utilization increases. The ratio of State 3 respiration to State 4 respiration is the respiratory control ratio (RCR).
The process of respiration can be measured by using an oxygen electrode to detect the amount of oxygen present in the assay cell. If respiration is occurring normally, the concentration of oxygen should slowly decrease as it is reduced to water. However, if there is some type of inhibition of oxidative phosphorylation occurring, the oxygen level will no longer decrease at the same rate. This rate of oxygen usage can be visualized by a chart recorder connected to the oxygen electrode. At normal respiration,a decreasing baseline slope will be established. During inhibition, however, the baseline slope should decrease (i.e., the slope will move closer to zero), since the oxygen present is no longer being reduced. In other words, the oxygen concentration in the assay cell is no longer decreasing at the same rate as in normal respiration. Furthermore, inhibition sites at specific complexes can be determined by competitive inhibition studies. This is accomplished by addition of a known inhibitor of, e.g., complex I, followed by the new respiration-inhibiting compound. […] This can be verified by trying inhibitors at other sites and by reversing the order, i.e., adding the new compound and then the known inhibitor.
The method for isolating rat liver mitochondria essentially followed the published methodology. Ahammadsahib et al., Life Sciences, 53, pgs. 1113-1120 (1993). The isolation buffer used for the isolation of mitochondria from rat liver consisted of 4 mM Tris-HC1, 0.5 mM EDTA, and 250 mM sucrose at a pH of 7.4. The isolation buffer was kept at refrigeration temperature at all times by storing on ice during the whole procedure. The rats were supplied by Sprague-Dawley, were male, and weighed approximately 300-320 grams. They were sacrificed with carbon dioxide, and the livers were removed and immediately placed in the isolation buffer on ice. The livers were then rinsed with several washings of cold buffer, cut into pieces, and homogenized. The homogenates were then centrifuged (Sorvall Superspeed RC2-B, 4° C) for 10 minutes at approximately 2000 rpms; the supernatant was next centrifuged for 20 minutes at approximately 9000 rpms. The pellet was reserved and resuspended in 2 ml of assay buffer with a glass pipet. The assay buffer consisted of 100 mM KC1, 5 mM KH2 PO4, 1 mM EDTA, 5 mM glutamate, 1 mM malate, and 20 mM Tris-HCl at a pH of 7.4 and was stored at room temperature. […]

[4] = Table 17, seven day cytotoxicity, same run, read-out: MCF-7 ED50
[5] = Table 17, seven day cytotoxicity, same run, read-out: A-549 ED50
[6] = read-out: MCF-7 ED50, Table 17, seven day cytotoxicity, same run
[7] = read-out: MCF-7 LC50, Table 12, same run

CCCCCCC(O)CCCC(O)C1CCC(C2CCC(C(O)CCCCCCCCCCCCC3=CC(C)OC3=O)O2)O1 (centres unmarked) [Compound 4, Asiminacin]
LC50 ([1]; Table 5, brine shrimp larvae): 5.7 ng/mL (≈ 9.15 nM)

CCCCCCCCCCCCCC[C@H]1OCO[C@@H]1CC[C@H](O)[C@@H]1CC[C@@H](CCCCC[C@@H](O)CC2=C[C@H](C)OC2=O)O1 [Compound 12, 17,18-formaldehyde acetal derivative]
IC50 [2, 4]: 268 ng/mL (≈ 440 nM) | IC50 [3, 5]: 69.5 ng/mL (≈ 114 nM) | LC50 ([1]; Table 17, same run): 7.5 ng/mL (≈ 12.3 nM) | RMB IC50 (rat liver mitochondria): 290.3 n moles/Lt/mg protein

CCCCCCCCCCCCC(O)C1CCC(C(O)CCC(O)C2CCC(CCCCCC(O)CC3=CC(C)OC3=O)O2)O1 (stereo not drawn) [Compound 22, C-18/21-cis-gigantecin]
LC50 ([1]; Table 12): 249 ng/mL (≈ 390 nM)

CCCCCCCCCC[C@@H](O)[C@H]1CC[C@H]([C@H]2CC[C@@H]([C@@H]3CC[C@@H](CCCCCCC[C@@H](O)CC4=C[C@H](C)OC4=O)O3)OCO2)O1 [Compound 21, 16,19-Formaldehyde acetal derivative of bullatanocin]
IC50 [2, 4]: 222 ng/mL (≈ 341 nM) | LC50 ([1]; Table 17, same run): 6.5 ng/mL (≈ 9.99 nM) | RMB IC50 (rat liver mitochondria): 11.3 n moles/Lt/mg protein

CCCCCCCCCC[C@@H](O)[C@H]1CC[C@H]([C@H]2CC[C@@H]([C@@H]3CC[C@@H](CCCCCCC[C@@H]4CC(CC(C)=O)C(=O)O4)O3)OCO2)O1 (stereo partly drawn) [Compound 25, 16,19-Formaldehyde acetal derivatives of (2,4-cis and trans)-bullatanocinones]
IC50 [2, 4]: 1280 ng/mL (≈ 1970 nM) | IC50 [3, 5]: 0.0677 ng/mL (≈ 0.104 nM) | LC50 ([1]; Table 17, same run): 15 ng/mL (≈ 23 nM) | RMB IC50 (rat liver mitochondria): 28.3 n moles/Lt/mg protein

CCCCCC(O)CCCCC(O)C1CCC(C2CCC(C(O)CCCCCCCCCCCCC3=CC(C)OC3=O)O2)O1 (centres unmarked) [Compound 5, Asiminecin]
IC50 ([3]; read-out: A-549 LC50): 0.000329 ng/mL (≈ 0.000528 nM) | LC50 ([1]; Table 5, brine shrimp larvae): 4.9 ng/mL (≈ 7.87 nM)

CCCCCC[C@H](O)CCC[C@H](O)[C@H]1CC[C@H]([C@H]2CC[C@H]([C@H](O)CCCCCCCCCCCCC3=C[C@H](C)OC3=O)O2)O1 [Compound 16, Squamocin, reference compound]
IC50 [2, 6]: 30.3 ng/mL (≈ 48.6 nM) | LC50 ([1]; Table 17, same run): 20 ng/mL (≈ 32.1 nM) | RMB IC50 (rat liver mitochondria): 21.5 n moles/Lt/mg protein

C=C(C)[C@H]1Cc2c(ccc3c2O[C@@H]2COc4cc(OC)c(OC)cc4[C@@H]2C3=O)O1 [Rotenone, rotenone, reference compound]
LC50 [1]: 12.3 ng/mL (≈ 31.2 nM) | RMB IC50 (rat liver mitochondria): 34.8 n moles/Lt/mg protein

CCCCCCCCCCCC/C=C\CCC(O)C(O)CCC(O)C1CCC(CCCCCC(O)CC2=CC(C)OC2=O)O1 (centres unmarked) [Compound 28, Gigantetronenin, reference compound]
IC50 [2, 7]: 1.49e-05 ng/mL (≈ 2.39e-05 nM) | LC50 ([1]; Table 12): 10400 ng/mL (≈ 16700 nM)

CCCCCCCCCC[C@@H](O)[C@H]1CC[C@H]([C@H](O)CC[C@H](O)[C@@H]2CC[C@@H](CCCCCCC[C@@H](O)CC3=C[C@H](C)OC3=O)O2)O1 [Compound 20, Bullatanocin, reference compound]
IC50 [2, 4]: 24.2 ng/mL (≈ 37.9 nM) | LC50 ([1]; Table 17, same run): 430 ng/mL (≈ 673 nM) | RMB IC50 (rat liver mitochondria): 50.7 n moles/Lt/mg protein

CCCCCC[C@H]1CCC[C@@H](C2CCC(C3CCC(C(O)CCCCCCCCCCCCC4=CC(C)OC4=O)O3)O2)OCO1 (some centres unmarked) [Compound 17, 24,28-formaldehyde acetal derivative of squamocin]
IC50 [2, 4]: 695 ng/mL (≈ 1090 nM) | LC50 ([1]; Table 17, same run): 4.4 ng/mL (≈ 6.93 nM) | RMB IC50 (rat liver mitochondria): 421.1 n moles/Lt/mg protein

CCCCCCCCCCC(O)C1CCC(C2CCC(C(O)CCCCC(O)CCCCCCCC3=CC(C)OC3=O)O2)O1 (centres unmarked) [Compound 3, Asimin]
BST LC50 ([1]; Table 5, brine shrimp larvae): 4.6 ng/mL

CCCCCCCCCC[C@H](O)[C@H]1CC[C@H]([C@H]2CC[C@@H]([C@@H]3CC[C@@H](CCCCCCC[C@@H]4CC(CC(C)=O)C(=O)O4)O3)OCO2)O1 (stereo partly drawn) [Compound 27, 16,19-Formaldehyde acetal derivatives of (2,4-cis and trans)-bullatalicinones]
IC50 [2, 4]: 63.9 ng/mL (≈ 98.2 nM) | LC50 ([1]; Table 17, same run): 38 ng/mL (≈ 58.4 nM) | RMB IC50 (rat liver mitochondria): 20.5 n moles/Lt/mg protein

CCCCCCCCCCCCCC[C@@H](O)[C@H]1CC[C@@H]([C@@H]2CC[C@@H](CCCCC[C@@H](O)CC3=C[C@H](C)OC3=O)O2)OCO1 [Compound 11, 14,17-formaldehyde acetal derivative]
IC50 [2, 6]: 461 ng/mL (≈ 757 nM) | IC50 ([3]; read-out: A-549 ED50): 0.798 ng/mL (≈ 1.31 nM)

CCCCCCCCCCCC[C@@H](O)[C@H]1CC[C@H]([C@H](O)CC[C@H](O)[C@@H]2CC[C@@H](CCCCC[C@@H](O)CC3=C[C@H](C)OC3=O)O2)O1 [Compound 29, Gigantecin]
IC50 [2, 7]: 0.1 ng/mL (≈ 0.157 nM) | IC50 ([3]; read-out: A-549 LC50): < 10 ng/mL | LC50 ([1]; Table 12): 34.4 ng/mL (≈ 53.8 nM)

CCCCCC[C@H](O)CCC[C@H](O)[C@H]1CC[C@H]([C@H]2CC[C@@H]([C@@H]3CC[C@@H](CCCCCCCCCC4=C[C@H](C)OC4=O)O3)OCO2)O1 [Compound 15, 16,19-mono-formaldehyde acetal derivative]
IC50 [2, 4]: 1090 ng/mL (≈ 1670 nM) | LC50 ([1]; Table 17, same run): 7 ng/mL (≈ 10.8 nM)

CCCCCC[C@H](O)CCC[C@H](O)[C@H]1CC[C@H]([C@H](O)CC[C@H](O)[C@@H]2CC[C@@H](CCCCCCCCCC3=C[C@H](C)OC3=O)O2)O1 [Compound 13, Squamostatin A, reference compound]
IC50 [2, 6]: 0.072 ng/mL (≈ 0.113 nM) | IC50 ([3]; read-out: A-549 ED50): 0.268 ng/mL (≈ 0.419 nM) | LC50 ([1]; Table 17, same run): 2800 ng/mL (≈ 4380 nM)

CCCCC(O)CCCCCC(O)C1CCC(C2CCC(C(O)CCCCCCCCCCCCC3=CC(C)OC3=O)O2)O1 (centres unmarked) [Compound 2]
LC50 ([1]; Table 5, brine shrimp larvae): 6 ng/mL (≈ 9.63 nM) | mitochondrial inhibition (rat liver mitochondria; rat liver mitochondria, result in words, listed as bullanin (2)): high activity; also recorded: slightly higher potencies than bullatacin

CCCCCCCCCC[C@H](O)[C@H]1CC[C@H]([C@H]2CC[C@@H]([C@@H]3CC[C@@H](CCCCCCC[C@@H](O)CC4=C[C@H](C)OC4=O)O3)OCO2)O1 [Compound 19, 16,19-Formaldehyde acetal derivative of bullatalicin]
IC50 [2, 4]: 18.5 ng/mL (≈ 28.4 nM) | LC50 ([1]; Table 17, same run): 49 ng/mL (≈ 75.3 nM) | RMB IC50 (rat liver mitochondria): 29.8 n moles/Lt/mg protein
